ChEMBL document CHEMBL1201862, “PubChem BioAssay data set” (2004)
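Where inhibition never reached the appropriate level, the endpoint shown equals the highest concentration tested. Otherwise, values were interpolated linearly from a five-concentration, 48-hour dose response in 96-well plates. GI50: concentration for 50% inhibition of growth.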 Calls of active or inactive are those of the source. Cut-off read from the data, not from the text of the source: active = GI50 up to about 1.1 µM and inactive = higher.

What was measured:
Experiment in all cases: inhibition of tumour cell growth, NCI panel, 48 h
[1] = system: SNB-75
[2] = system: PC-3
[3] = system: RXF 393
[4] = system: HT-29
[5] = system: NCI-H23
[6] = system: UACC-62
[7] = system: M14
[8] = system: BT-549
[9] = system: Hs-578T
[10] = system: UACC-257
[11] = system: SF-295
[12] = system: TK-10
[13] = system: EKVX
[14] = system: K562
[15] = system: SF-268
[16] = system: SNB-19
[17] = system: Malme-3M
[18] = system: UO-31
[19] = system: SR
[20] = system: LOX IMVI

| SMILES | GI50 [1] | GI50 [2] | GI50 [3] | GI50 [4] | GI50 [5] | GI50 [6] | GI50 [7] | GI50 [8] | GI50 [9] | GI50 [10] | GI50 [11] | GI50 [12] | GI50 [13] | GI50 [14] | GI50 [15] | GI50 [16] | GI50 [17] | GI50 [18] | GI50 [19] | GI50 [20] |
| --- | --- | --- | --- | --- | --- | --- | --- | --- | --- | --- | --- | --- | --- | --- | --- | --- | --- | --- | --- | --- |
| CC(=O)NC1(NC(C)=O)C2CC(C1Cc1ccccc1)C(C)(C)C2C (stereo unspecified) | > 100 µM (inactive) | > 100 µM (inactive) | > 100 µM (inactive) | > 100 µM (inactive) | > 100 µM (inactive) | > 100 µM (inactive) | > 100 µM (inactive) | > 100 µM (inactive) | > 100 µM (inactive) | > 100 µM (inactive) | > 100 µM (inactive) | > 100 µM (inactive) | > 100 µM (inactive) | > 100 µM (inactive) | > 100 µM (inactive) | > 100 µM (inactive) | > 100 µM (inactive) | > 100 µM (inactive) | > 100 µM (inactive) |  |
| Cc1cc(C)n(C(=CC(=O)C(Cl)Cl)n2nc(C)cc2C)n1 | > 100 µM (inactive) | 11.4 µM (inactive) | 2.61 µM (inactive) |  | 2.62 µM (inactive) | 1.66 µM (inactive) | 2.83 µM (inactive) | 2.45 µM (inactive) | 5.21 µM (inactive) | 1.32 µM (inactive) | 10.4 µM (inactive) | 3.18 µM (inactive) |  | 2.17 µM (inactive) | 6.38 µM (inactive) | 10.7 µM (inactive) | 4.35 µM (inactive) | 4.71 µM (inactive) | 1.61 µM (inactive) | 1.57 µM (inactive) |
| CSc1nc(Br)nc2ncn(C3CC(Oc4ccc(C)cc4)C(COc4ccc(C)cc4)O3)c12 (stereo unspecified) | 21.9 µM (inactive) | > 100 µM (inactive) |  | > 100 µM (inactive) | > 100 µM (inactive) | > 100 µM (inactive) | > 100 µM (inactive) | > 100 µM (inactive) | 25.1 µM (inactive) | > 100 µM (inactive) | > 100 µM (inactive) | > 100 µM (inactive) | > 100 µM (inactive) |  | > 100 µM (inactive) | > 100 µM (inactive) | > 100 µM (inactive) | 17.7 µM (inactive) | 3.72 µM (inactive) | > 100 µM (inactive) |
| O=CC1OC(=O)c2cc(O)c(O)c(O)c2-c2c(cc(O)c(O)c2O)C(=O)OC1C(O)C(O)CO (stereo unspecified) | > 100 µM (inactive) | 16.2 µM (inactive) | > 100 µM (inactive) | 22 µM (inactive) | > 100 µM (inactive) |  | 35 µM (inactive) | 51.4 µM (inactive) | 54 µM (inactive) | 82 µM (inactive) | 27.9 µM (inactive) | 19.5 µM (inactive) | > 100 µM (inactive) | 21.1 µM (inactive) | > 100 µM (inactive) | > 100 µM (inactive) | > 100 µM (inactive) | > 100 µM (inactive) | 20.6 µM (inactive) | 15.4 µM (inactive) |
| Cc1cnoc1/N=C1\C=C(O)C(=O)c2ccccc21 | 10.4 µM (inactive) | 25.4 µM (inactive) |  | 29 µM (inactive) | 4.71 µM (inactive) | 4.71 µM (inactive) | 12.5 µM (inactive) | 4.9 µM (inactive) | 7.6 µM (inactive) | 16.3 µM (inactive) | 22.8 µM (inactive) | > 100 µM (inactive) | 29.5 µM (inactive) | 1.73 µM (inactive) | 17.8 µM (inactive) | 16.3 µM (inactive) | 3.02 µM (inactive) | 10.8 µM (inactive) | 33.6 µM (inactive) | 5.26 µM (inactive) |
| COC(=O)[C@]12CC[C@H]3CN(S(=O)(=O)c4ccc(C)cc4)[C@H]([C@H]31)[C@H](c1ccco1)N2S(=O)(=O)c1ccc(C)cc1 |  | 28.8 µM (inactive) | 16.8 µM (inactive) | 38.8 µM (inactive) | 48.1 µM (inactive) | 19.4 µM (inactive) | 26.8 µM (inactive) | 30.1 µM (inactive) | > 100 µM (inactive) | 28.6 µM (inactive) | 35.6 µM (inactive) | 56.5 µM (inactive) | 51.1 µM (inactive) | 30.2 µM (inactive) | 42.3 µM (inactive) | > 100 µM (inactive) | 23.8 µM (inactive) | 29.3 µM (inactive) | 38.7 µM (inactive) | 34.7 µM (inactive) |
| C=CCNC(=O)CN(CC(=O)O)C1CCCCC1N(CC(=O)O)CC(=O)O (stereo unspecified) | > 100 µM (inactive) | > 100 µM (inactive) | > 100 µM (inactive) | > 100 µM (inactive) | > 100 µM (inactive) | > 100 µM (inactive) |  | > 100 µM (inactive) | > 100 µM (inactive) | > 100 µM (inactive) | > 100 µM (inactive) | > 100 µM (inactive) |  | > 100 µM (inactive) | > 100 µM (inactive) | > 100 µM (inactive) | > 100 µM (inactive) | > 100 µM (inactive) | > 100 µM (inactive) | > 100 µM (inactive) |
| CCOc1ccc(NC(=O)/C(=N\NC(C)(C)C)C2C(=O)Nc3ccccc3[S+]2[O-])cc1 (stereo unspecified) | > 100 µM (inactive) | > 100 µM (inactive) | > 100 µM (inactive) | > 100 µM (inactive) | > 100 µM (inactive) | > 100 µM (inactive) | > 100 µM (inactive) | > 100 µM (inactive) | > 100 µM (inactive) | > 100 µM (inactive) | > 100 µM (inactive) | > 100 µM (inactive) | > 100 µM (inactive) | > 100 µM (inactive) | > 100 µM (inactive) | > 100 µM (inactive) | > 100 µM (inactive) | > 100 µM (inactive) | 45.1 µM (inactive) |  |
| COc1cc(/C=N/NC(=O)c2c(Cl)c(Cl)c(Cl)c(Cl)c2-c2nc3cc(C(=O)c4ccccc4)ccc3[nH]2)ccc1O | 42.1 µM (inactive) | 35.2 µM (inactive) | 21.6 µM (inactive) | 40.1 µM (inactive) | 28.4 µM (inactive) |  | 34.3 µM (inactive) | 32.7 µM (inactive) | 60 µM (inactive) | 60.8 µM (inactive) | 29.9 µM (inactive) | 45.5 µM (inactive) | 63.8 µM (inactive) | 15.8 µM (inactive) | 36.9 µM (inactive) | 62.1 µM (inactive) | 54.8 µM (inactive) | 45.6 µM (inactive) | 11.5 µM (inactive) | 50.9 µM (inactive) |
| Cc1nc2ccc(NCCN(C)C)c3c(=O)c4cc(O)ccc4n1c23 | 0.418 µM (active) | 0.653 µM (active) |  | 0.156 µM (active) | 0.318 µM (active) | 1.25 µM (inactive) | 2.67 µM (inactive) | 3.45 µM (inactive) | 0.508 µM (active) | 3.56 µM (inactive) | 1.04 µM (active) | 2.75 µM (inactive) |  | 0.298 µM (active) | 0.75 µM (active) | 0.281 µM (active) | 1.19 µM (inactive) | 2.49 µM (inactive) | < 0.01 µM (active) | 0.379 µM (active) |
